{"source": "patent US12648986B2", "about": "“PLD for use in combination in the treatment of coronavirus” (PHARMA MAR, S.A., priority 2020, dated 2026)", "key": {"CD45+ cells": {"system": "CD45+ cells", "experiment": "Ex vivo cytokine expression in CD45+ cells from broncho-alveolar lavages of mice, LPS-B5 stimulation", "settings": "cells from plitidepsin treated mice", "description": "An ex vivo study assessed the effect of plitidepsin on expression of the cytokines IL 6, IL 10, and TNFα in the lungs of mice."}, "SARS-CoV-2 [1]": {"system": "SARS-CoV-2", "experiment": "K18-hACE2 transgenic mice infected with SARS-CoV-2", "assay_type": "in vivo"}, "SARS-CoV-2 [2]": {"system": "SARS-CoV-2", "experiment": "Mouse model of adenovirus-mediated hACE2 infected with SARS-CoV-2", "assay_type": "in vivo"}, "eEF1A": {"target": "eEF1A (Oryctolagus cuniculus, UniProt Q71V39)", "sequence (Q71V39 whole entry)": "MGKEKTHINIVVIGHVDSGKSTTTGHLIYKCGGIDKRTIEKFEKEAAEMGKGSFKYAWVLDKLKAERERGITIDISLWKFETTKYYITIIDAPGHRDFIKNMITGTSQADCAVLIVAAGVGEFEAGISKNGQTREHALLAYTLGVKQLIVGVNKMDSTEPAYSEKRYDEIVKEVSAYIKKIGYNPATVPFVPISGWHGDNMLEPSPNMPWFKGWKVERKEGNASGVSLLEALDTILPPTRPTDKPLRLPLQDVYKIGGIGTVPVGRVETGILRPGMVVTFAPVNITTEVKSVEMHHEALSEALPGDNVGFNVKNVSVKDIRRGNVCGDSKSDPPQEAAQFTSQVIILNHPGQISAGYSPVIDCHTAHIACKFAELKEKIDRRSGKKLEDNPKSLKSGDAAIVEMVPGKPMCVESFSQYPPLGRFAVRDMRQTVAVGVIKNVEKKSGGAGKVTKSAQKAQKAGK", "experiment": "Binding of 14C-plitidepsin to purified eEF1A", "settings": "eEF1A purified from rabbit muscle"}, "SARS-CoV-2 [3]": {"system": "SARS-CoV-2", "experiment": "Cytopathic effect on Vero E6 cells exposed to SARS-CoV-2 (CellTiter-Glo)", "assay_type": "cell-based", "settings": "for IC50: read-out: mean IC50 value and SD, SARS-CoV-2-induced cytopathic effect"}, "SARS-CoV-2 [4]": {"system": "SARS-CoV-2", "experiment": "SARS-CoV-2 replication in human stem cell-derived pneumocyte like cells", "assay_type": "cell-based", "settings": "10 nM plitidepsin for 1 hour before infection, 48 hour incubation", "experimental": "Several in vitro experiments aimed at determining the effect of plitidepsin on SARS-CoV-2 were carried out and are disclosed herein. […] In another study, human stem cell-derived pneumocyte like cells were prophylactically exposed to 10 nm plitidepsin for 1 hour and then infected with SARS-CoV-2 (4×10^4 plaque forming units). After a 48 hour incubation period, both antiviral and cytotoxic plitidepsin effects were determined."}, "[5]": {"system": "human stem cell-derived pneumocyte like cells", "settings": "10 nm plitidepsin, 48 hour incubation"}, "SARS-CoV-2 [6]": {"system": "SARS-CoV-2", "experiment": "Vero E6 cells infected with SARS-CoV-2, direct quantitation of nucleocapsid (N) protein", "assay_type": "cell-based", "settings": "Severe acute respiratory syndrome coronavirus 2, Vero C1008, two studies, read-out: IC50, SARS-CoV-2 growth in vitro"}, "[7]": {"settings": "Severe acute respiratory syndrome coronavirus 2, Vero C1008, 72 h"}}, "note": "Like-named read-outs stand apart in the source and are kept apart here."}
{"compound": "CC[C@H](C)[C@H]1NC(=O)[C@@H](NC(=O)[C@@H](CC(C)C)N(C)C(=O)[C@@H]2CCCN2C(=O)C(C)=O)[C@@H](C)OC(=O)[C@H](Cc2ccc(OC)cc2)N(C)C(=O)[C@@H]2CCCN2C(=O)[C@H](CC(C)C)NC(=O)[C@@H](C)C(=O)[C@H](C(C)C)OC(=O)C[C@@H]1O", "note": "[PLD, (−)-(3S,6R,7S,10R,11S,15S,17S,20S,25aS)-11-hydroxy-3-(4-methoxybenzyl)-2,6,17-trimethyl-15-(1-methylethyl)-7-[[(2R)-4-methyl-2-[methyl[[(2S)-1-(2-oxopropanoyl)pyrrolidin-2-yl]carbonyl]amino]pentanoyl]amino]-10-[(1S)-1-methylpropyl]-20-(2-methylpropyl)tetradecahydro-15H-pyrrolo[2,1-f]-[1,15,4,7,10,20]dioxatetrazacyclotricosine-1,4,8,13,16,18,21(17H)-heptaone]", "values": [{"measurement": "IL 6, IL 10 and TNFα in CD45+ cells upon LPS-B5 stimulation vs nonstimulated controls", "setting": "CD45+ cells", "value": "failed to show a marked increase"}, {"measurement": "antiviral effects in vivo", "setting": "SARS-CoV-2 [1]", "value": "potent antiviral effects"}, {"measurement": "cytotoxic effects of the drug at concentrations inhibiting viral-induced cytopathic effect", "setting": "Vero E6 cells; Vero E6, absence of virus", "value": "no cytotoxic effects of the drug were observed"}, {"measurement": "antiviral effects in vivo", "setting": "SARS-CoV-2 [2]", "value": "potent antiviral effects"}, {"measurement": "affinity for eEF1A", "setting": "eEF1A", "value": "high affinity"}, {"measurement": "rate of dissociation from eEF1A", "setting": "eEF1A", "value": "low rate of dissociation"}, {"measurement": "IC50", "setting": "SARS-CoV-2 [3]; [7]", "value": "51 ± 20", "unit": "nM"}, {"measurement": "replication of SARS-CoV-2", "setting": "SARS-CoV-2 [4]", "value": "completely eliminated replication of SARS-CoV-2"}, {"measurement": "cytotoxicity against pneumocyte like cells", "setting": "[5]", "value": "no observable cytotoxicity"}, {"measurement": "IC50", "setting": "SARS-CoV-2 [6]", "value": "0.7 to 3", "unit": "nM"}]}
{"compound": "nelfinavir mesylate hydrate", "values": [{"measurement": "cytotoxic effects of the drug at concentrations inhibiting viral-induced cytopathic effect", "setting": "Vero E6 cells", "value": "no cytotoxicity of the drug was observed"}, {"measurement": "capacity to inhibit SARS-CoV-2-induced cytopathic effect", "setting": "SARS-CoV-2 [3]; Vero E6, 100 μM to 0.0512 nM", "value": "confirmed to have in vitro capacity to inhibit SARS-CoV-2-induced cytopathic effect"}]}
{"compound": "CCN(CCO)CCCC(C)Nc1ccnc2cc(Cl)ccc12", "note": "(stereo not shown) [Hydroxychloroquine, hydroxychloroquine]", "values": [{"measurement": "cytotoxic effects of the drug at concentrations inhibiting viral-induced cytopathic effect", "setting": "Vero E6 cells; Vero E6, absence of virus", "value": "no cytotoxic effects of the drug were observed"}, {"measurement": "IC50", "setting": "SARS-CoV-2 [3]; [7]", "value": "9300 ± 11100", "unit": "nM"}]}
{"compound": "MDL28170 [MDL 28170]", "values": [{"measurement": "cytotoxic effects of the drug at concentrations inhibiting viral-induced cytopathic effect", "setting": "Vero E6 cells; Vero E6, absence of virus", "value": "no cytotoxicity of the drug was observed"}, {"measurement": "IC50", "setting": "SARS-CoV-2 [3]; Vero E6, single drug, 3 days post infection, independent experiments with two replicates each", "value": "140 ± 60", "unit": "nM"}]}
